The supplement of paper PMC13380429

Legend:
Conditions in all cases: 72 h
Caco-2 [1] = assay: relative viability EC50 (midpoint between 100% and the lowest measured viability); higher = less toxic
Vero E6 [2] = assay: as above
U2OS [3] = assay: as above
HepG2 [4] = assay: as above
Calu-3 [5] = assay: as above
Caco-2 [6] = assay: drug sensitivity score (DSS) for viability; higher = more toxic; extreme values may be limits of the assay
Vero E6 [7] = assay: as above
U2OS [8] = assay: as above
HepG2 [9] = assay: as above
Calu-3 [10] = assay: as above
Caco-2 [11] = assay: cell viability relative to DMSO; higher = less toxic
Vero E6 [12] = assay: as above
U2OS [13] = assay: as above
HepG2 [14] = assay: as above
Calu-3 [15] = assay: as above

## C[C@@H]1CN(c2c(F)c(N)c3c(=O)c(C(=O)O)cn(C4CC4)c3c2F)C[C@H](C)N1 [sparfloxacin]
Caco-2 [1]
  relative viability EC50: > 10 µM
Vero E6 [2]
  relative viability EC50: > 10 µM
U2OS [3]
  relative viability EC50: > 10 µM
HepG2 [4]
  relative viability EC50: > 10 µM
Calu-3 [5]
  relative viability EC50: > 10 µM
Caco-2 [6]
  drug sensitivity score: 0
Vero E6 [7]
  drug sensitivity score: 0
U2OS [8]
  drug sensitivity score: 0
HepG2 [9]
  drug sensitivity score: 0
Calu-3 [10]
  drug sensitivity score: 0
Caco-2 [11]; 1 nM
  cell viability: 96.3%
Caco-2 [11]; 10 nM
  cell viability: 101%
Caco-2 [11]; 100 nM
  cell viability: 95.1%
Caco-2 [11]; 1000 nM
  cell viability: 93.4%
Caco-2 [11]; 10000 nM
  cell viability: 98%
Vero E6 [12]; 1 nM
  cell viability: 98.6%
Vero E6 [12]; 10 nM
  cell viability: 103%
Vero E6 [12]; 100 nM
  cell viability: 103%
Vero E6 [12]; 1000 nM
  cell viability: 98.6%
Vero E6 [12]; 10000 nM
  cell viability: 96%
U2OS [13]; 1 nM
  cell viability: 101%
U2OS [13]; 10 nM
  cell viability: 102%
U2OS [13]; 100 nM
  cell viability: 95.9%
U2OS [13]; 1000 nM
  cell viability: 101%
U2OS [13]; 10000 nM
  cell viability: 99%
HepG2 [14]; 1 nM
  cell viability: 110%
HepG2 [14]; 10 nM
  cell viability: 98.6%
HepG2 [14]; 100 nM
  cell viability: 111%
HepG2 [14]; 1000 nM
  cell viability: 94.7%
HepG2 [14]; 10000 nM
  cell viability: 92.5%
Calu-3 [15]; 1 nM
  cell viability: 97.6%
Calu-3 [15]; 10 nM
  cell viability: 93%
Calu-3 [15]; 100 nM
  cell viability: 106%
Calu-3 [15]; 1000 nM
  cell viability: 110%
Calu-3 [15]; 10000 nM
  cell viability: 97.5%

## CC(=O)S[C@@H]1CC2=CC(=O)CC[C@]2(C)[C@H]2CC[C@@]3(C)[C@@H](CC[C@@]34CCC(=O)O4)[C@H]12 [spironolactone]
Caco-2 [1]
  relative viability EC50: > 10 µM
Vero E6 [2]
  relative viability EC50: > 10 µM
U2OS [3]
  relative viability EC50: > 10 µM
HepG2 [4]
  relative viability EC50: > 10 µM
Calu-3 [5]
  relative viability EC50: > 10 µM
Caco-2 [6]
  drug sensitivity score: 0
Vero E6 [7]
  drug sensitivity score: 0
U2OS [8]
  drug sensitivity score: 0
HepG2 [9]
  drug sensitivity score: 0
Calu-3 [10]
  drug sensitivity score: 0
Caco-2 [11]; 1 nM
  cell viability: 95.1%
Caco-2 [11]; 10 nM
  cell viability: 96.7%
Caco-2 [11]; 100 nM
  cell viability: 100%
Caco-2 [11]; 1000 nM
  cell viability: 99.6%
Caco-2 [11]; 10000 nM
  cell viability: 102%
Vero E6 [12]; 1 nM
  cell viability: 101%
Vero E6 [12]; 10 nM
  cell viability: 97.2%
Vero E6 [12]; 100 nM
  cell viability: 97.1%
Vero E6 [12]; 1000 nM
  cell viability: 88.7%
Vero E6 [12]; 10000 nM
  cell viability: 102%
U2OS [13]; 1 nM
  cell viability: 92.9%
U2OS [13]; 10 nM
  cell viability: 98.6%
U2OS [13]; 100 nM
  cell viability: 97.4%
U2OS [13]; 1000 nM
  cell viability: 101%
U2OS [13]; 10000 nM
  cell viability: 102%
HepG2 [14]; 1 nM
  cell viability: 104%
HepG2 [14]; 10 nM
  cell viability: 99.7%
HepG2 [14]; 100 nM
  cell viability: 110%
HepG2 [14]; 1000 nM
  cell viability: 107%
HepG2 [14]; 10000 nM
  cell viability: 107%
Calu-3 [15]; 1 nM
  cell viability: 90.7%
Calu-3 [15]; 10 nM
  cell viability: 95.4%
Calu-3 [15]; 100 nM
  cell viability: 99.1%
Calu-3 [15]; 1000 nM
  cell viability: 94.5%
Calu-3 [15]; 10000 nM
  cell viability: 102%

## C[N+](C)(C)CCOC(=O)CCC(=O)OCC[N+](C)(C)C [succinylcholine-chloride]
Caco-2 [1]
  relative viability EC50: > 10 µM
Vero E6 [2]
  relative viability EC50: > 10 µM
U2OS [3]
  relative viability EC50: > 10 µM
HepG2 [4]
  relative viability EC50: > 10 µM
Calu-3 [5]
  relative viability EC50: > 10 µM
Caco-2 [6]
  drug sensitivity score: 0
Vero E6 [7]
  drug sensitivity score: 0
U2OS [8]
  drug sensitivity score: 0
HepG2 [9]
  drug sensitivity score: 0
Calu-3 [10]
  drug sensitivity score: 0
Caco-2 [11]; 1 nM
  cell viability: 103%
Caco-2 [11]; 10 nM
  cell viability: 97.3%
Caco-2 [11]; 100 nM
  cell viability: 99.9%
Caco-2 [11]; 1000 nM
  cell viability: 97.2%
Caco-2 [11]; 10000 nM
  cell viability: 104%
Vero E6 [12]; 1 nM
  cell viability: 108%
Vero E6 [12]; 10 nM
  cell viability: 95.8%
Vero E6 [12]; 100 nM
  cell viability: 102%
Vero E6 [12]; 1000 nM
  cell viability: 89.7%
Vero E6 [12]; 10000 nM
  cell viability: 102%
U2OS [13]; 1 nM
  cell viability: 98.7%
U2OS [13]; 10 nM
  cell viability: 103%
U2OS [13]; 100 nM
  cell viability: 101%
U2OS [13]; 1000 nM
  cell viability: 101%
U2OS [13]; 10000 nM
  cell viability: 102%
HepG2 [14]; 1 nM
  cell viability: 106%
HepG2 [14]; 10 nM
  cell viability: 97.2%
HepG2 [14]; 100 nM
  cell viability: 106%
HepG2 [14]; 1000 nM
  cell viability: 93.3%
HepG2 [14]; 10000 nM
  cell viability: 102%
Calu-3 [15]; 1 nM
  cell viability: 101%
Calu-3 [15]; 10 nM
  cell viability: 103%
Calu-3 [15]; 100 nM
  cell viability: 101%
Calu-3 [15]; 1000 nM
  cell viability: 94.8%
Calu-3 [15]; 10000 nM
  cell viability: 106%

## Cc1ccccc1/N=N/c1ccc(/N=N/c2c(O)ccc3ccccc23)c(C)c1 [sudan-IV]
Caco-2 [1]
  relative viability EC50: > 10 µM
Vero E6 [2]
  relative viability EC50: > 10 µM
U2OS [3]
  relative viability EC50: > 10 µM
HepG2 [4]
  relative viability EC50: > 10 µM
Calu-3 [5]
  relative viability EC50: > 10 µM
Caco-2 [6]
  drug sensitivity score: 0
Vero E6 [7]
  drug sensitivity score: 0
U2OS [8]
  drug sensitivity score: 0
HepG2 [9]
  drug sensitivity score: 2.2
Calu-3 [10]
  drug sensitivity score: 0
Caco-2 [11]; 1 nM
  cell viability: 96.3%
Caco-2 [11]; 10 nM
  cell viability: 119%
Caco-2 [11]; 100 nM
  cell viability: 113%
Caco-2 [11]; 1000 nM
  cell viability: 120%
Caco-2 [11]; 10000 nM
  cell viability: 94.5%
Vero E6 [12]; 1 nM
  cell viability: 104%
Vero E6 [12]; 10 nM
  cell viability: 100%
Vero E6 [12]; 100 nM
  cell viability: 104%
Vero E6 [12]; 1000 nM
  cell viability: 110%
Vero E6 [12]; 10000 nM
  cell viability: 87.4%
U2OS [13]; 1 nM
  cell viability: 97.8%
U2OS [13]; 10 nM
  cell viability: 102%
U2OS [13]; 100 nM
  cell viability: 93.3%
U2OS [13]; 1000 nM
  cell viability: 95.3%
U2OS [13]; 10000 nM
  cell viability: 90.5%
HepG2 [14]; 1 nM
  cell viability: 96.3%
HepG2 [14]; 10 nM
  cell viability: 111%
HepG2 [14]; 100 nM
  cell viability: 104%
HepG2 [14]; 1000 nM
  cell viability: 81.2%
HepG2 [14]; 10000 nM
  cell viability: 92.7%
Calu-3 [15]; 1 nM
  cell viability: 98.2%
Calu-3 [15]; 10 nM
  cell viability: 107%
Calu-3 [15]; 100 nM
  cell viability: 96.6%
Calu-3 [15]; 1000 nM
  cell viability: 107%
Calu-3 [15]; 10000 nM
  cell viability: 95.2%
